Experimental data taken from patent US20190315878A1, “BISPECIFIC ANTIBODIES THAT MODULATE TLR-4 SIGNALING AND USES THEREOF” (ARGOS THERAPEUTICS INC., priority 2016, published 2019).

Assays:
[1] = target: T1, MD-2 binding to sCD83-m3 (Homo sapiens, UniProt Q9Y6Y9); assay: LPS derivatives pre-incubated with MD-2; loss of MD-2 binding to sCD83 (cell free ELISA); conditions: for % inhibition of MD-2 binding to sCD83-m3: LPS derivatives pre-incubated with MD-2, cell free ELISA; for blocking of MD-2 binding to sCD83: FIG. 6B
T1 sequence (Q9Y6Y9 17-160 limits assumed): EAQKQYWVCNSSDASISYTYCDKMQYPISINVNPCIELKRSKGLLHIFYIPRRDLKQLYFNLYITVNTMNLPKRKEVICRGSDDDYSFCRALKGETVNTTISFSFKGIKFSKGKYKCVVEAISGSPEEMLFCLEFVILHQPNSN
Description: sCD83 was prepared at 1 μg/mL in Coating Buffer (BD® Bioscience OptEIA ELISA Reagent Set B) and incubated overnight at 4° C. Plates were washed with wash buffer (PBS with 0.05% Tween 20, BD® Bioscience OptEIA Reagent Set B) three times using an ELx405 auto plate washer and then 300 μl of blocking buffer (1% BSA in PBS) was added to each well. The plates were then incubated for 2 hours at 37° C. to block and then washed three times with wash buffer. The protein of interest (MD-2, CD14, MD-2+LPS, or LPS) (R&D Systems®, Inc., Sigma) was serially diluted in seven tubes, and then 100 μl of the diluted protein samples were transferred to the appropriate wells on the capture plate. The plates were then incubated for 1 hour at room temperature in the dark. Plates were washed and goat anti-human biotinylated CD83 detection antibody (R&D Systems®, Inc.) was added at 100 μl/well and incubated for 2 hours at room temperature in the dark. The plates were then washed, and streptavidin-HRP was prepared at a 1:1000 dilution and added at 100 μl/well. The plates were incubated for 1 hour at room temperature in the dark and then washed, and development solution was prepared by combining equal parts of Substrate A plus Substrate B (BD® OptEIA ELISA Reagent Set B) and added to the plates (100 μl/well). The plates were allowed to develop for 1-10 minutes and the reaction was stopped by adding 50 μl/well of stop solution (BD® OptEIA reagents set B). The plates were analyzed on a ELx800 universal microplate reader at 450 nm.
In order to map the sCD83 binding site on MD-2, recombinant MD-2 protein was pre-incubated with each of several LPS derivatives prior to being added to plates coated with sCD83 protein. […] If MD-2 bound to LPS or the LPS derivatives blocked sCD83 binding, the interaction of sCD83 with MD-2 may mimic antagonist regulation of TLR signaling.

[2] = tested on: IRAK-1; assay: Western blotting of GM-CSF-cultured monocytes; assay type: cell-based, human; conditions: 60 minutes; 25 μg/ml sCD83 or 100 ng/ml LPS; FIG. 7A
Description: Monocytes were isolated from PBMC using negative selection (Stemcell) and cultured in R-10 medium ((10% fetal bovine serum (FBS; Atlanta Biologicals), Roswell Park Memorial Institute-1640 (supplemented with 10 mM 4-2-hydroxyethyl-1-piperazineethanesulfonic acid pH 7.4, 1 mM sodium pyruvate, 0.1 mM nonessential amino acids, 2 mM sodium glutamate, and […] 2-mercaptoethanol; Invitrogen® Corp.)) with GM-CSF overnight. sCD83 or LPS was then added for the indicated time points. Cells were lysed in ice cold RIPA buffer in the presence of a protease/phosphatase inhibitor cocktail ([…]). Bradford (BCA) protein assay (Thermo Scientific) was performed to determine total protein concentrations. 4-5 μg of each lysate sample was run on each lane of a Criterion 10-20% Tris-HCL gel at 200V for 50 minutes. The gel was transferred to PVDF membrane at 100V for 75 minutes. […]
The inventors studied the expression of IRAK proteins in the presence of sCD83. […] IRAK-1 protein was detected in untreated cultures and LPS-treated cultures, in contrast to cultures treated with sCD83 (FIG. 7A). Furthermore, no change in IRAK-2, IRAK-4, and IRAK-M protein levels was detected when cells were treated with sCD83 for 60 minutes.

[3] = tested on: sCD83-m3 binding on monocytes; assay: Antibody blocking of sCD83-m3 binding to PBMCs / monocytes (Example 2); design: species or system human; conditions: post-thaw PBMCs
Description: For antibody blocking experiments, cells were pre-incubated with the indicated purified antibodies to CD14 (clone M5E2, BD® Biosciences; clone 61D3, eBioscience® Corp.; clone My4, Beckman Coulter®, Inc.), to CD44s (clone 515, BD® Biosciences; clone 1M7, eBioscience® Corp.; and clone 156-3c11 and clone 5F12, Invitrogen® Corp.), to CD44v6 (clone VFF-7, eBiosciences® Corp.) to TLR4/MD-2 (clone MTS510, eBioscience® Corp.) or to MD-2 (clone 984, eBioscience® Corp.; clone 288307, R&D Systems®, Inc.) for 15 minutes at room temperature without washing prior to addition of sCD83 protein. Isotype control IgG1 and IgG2a antibodies were purchased from eBioscience® Corp.. Cells were washed with 2 mL BD® Stain Buffer (FBS) and incubated with 5 μl of Goat anti-human CD83 biotin (R&D Systems®, Inc.) for 15 minutes at room temperature. Cells were washed twice with 2 ml BD® Stain Buffer (FBS) and incubated with 20 μl of Streptavidin APC (BD® Biosciences) for 15 minutes at room temperature. Background staining was determined without the addition of sCD83 protein. […]

[4] = tested on: IRAK-1; assay: IRAK assay of CD83 activity in macrophage cultures (Western blot); assay type: cell-based, human
Description: The IRAK Assay measures the rapid down-regulation of IRAK-1 protein by sCD83 in macrophage cultures. PBMCs were cultured in the presence of GM-CSF for 5 days. Macrophages were harvested and cultured overnight in media containing GM-CSF, then incubated in the presence or absence of a test antibody in 1 mL cultures for various times. Cell lysates were then used to prepare a Western blot and evaluated for IRAK expression as described in more detail in working Example 3.
One vial (2×10^8 total cells) of 2124557 PBMCs were thawed and cultured in T-150 flask with 1000 U/mL GM-CSF for 5 days. The macrophages were harvested, counted and resuspended at 1×10^6 cells/mL in R-10 media with GM-CSF and then cultured overnight. The cells were incubated with various preparations of sCD83 polypeptides, +/−25 μg/mL in 1 mL cultures for various times and then lysed in ice cold RIPA buffer with protease/phosphatase inhibitor cocktail. Bradford (BCA) protein assay was performed to determine total protein concentration.
4-5 μg of each lysate sample was run on a lane of a Criterion 10-20% Tris-HCL gel at 200V for 50 minutes. The gel was transferred to PVDF membrane at 100V for 75 minutes. […]

[5] = tested on: stimulated PBMC cultures; assay: Cytokine secretion from stimulated PBMC cultures (Cytometric Bead Array); assay type: cell-based, human; conditions: COX-2 inhibitor in combination with sCD83
Description: (§1) To evaluate cytokine secretion from stimulated PBMC cultures in response to sCD83 treatment, the supernatant was collected after culture and analyzed for human cytokines using the Cytometric Bead Array kit (BD® Biosciences) according to the manufacturer's instructions. Data were analyzed using the FCAP Array software (BD® Biosciences). PGE2 concentrations were measured using a competitive ELISA kit (Thermofisher).

[6] = tested on: stimulated PBMC cultures; assay: PGE2 secretion from stimulated PBMC cultures (competitive ELISA); assay type: cell-based, human; conditions: COX-2 inhibitor in combination with sCD83; FIG. 9E
Description: as §1

Compound: diphosphoryl-Lipid A [Lipid A Diphos]
- % inhibition of MD-2 binding to sCD83-m3 [1]: 19%

Compound: monophosphoryl-Lipid A [Lipid A Monophos]
- % inhibition of MD-2 binding to sCD83-m3 [1]: 22%

Compound: lipopolysaccharide [LPS]
- % inhibition of MD-2 binding to sCD83-m3 [1]: 25%
- IRAK-1 protein expression [2]: detected
- % inhibition (relative to control) [3]: 5%
- down-regulation of IRAK-1 protein in macrophage cultures [4]: does not have this effect
- IRAK assay result ([4]; macrophages, 25 μg/mL): negative result

Compound: KDO-lipid A [KDO-Lipid A variant]
- % inhibition of MD-2 binding to sCD83-m3 [1]: 93%
- blocking of MD-2 binding to sCD83 ([1]; added first to sCD83 bound plates and washed prior to addition of MD-2 protein): no longer blocked MD-2 binding to sCD83
- blocking of MD-2 binding to sCD83 ([1]; pre-incubated with MD-2): prevented MD-2 binding to sCD83
- blocking of MD-2 binding to sCD83 ([1]; pre-incubated with MD-2, listed as KDO): blocks sCD83 binding to MD-2

Compound: CS(=O)(=O)Nc1ccc([N+](=O)[O-])cc1OC1CCCCC1 [NS-398]
- IL-6 secretion ([5]; FIG. 9C): marginal effect
- sCD83 induced IL-10 secretion ([5]; FIG. 9D): suppressed sCD83 inducted IL-10 secretion
- PGE2 production [6]: blocked PGE2 production
